This passage reports EC50, Emax and Ki results from patent publication US6093838A, “Amines substituted with a dihydro-benzofuranyl or with a dihydro-isobenzofuranyl group, an aryl or heteroaryl group and an alkyl group, having retinoid-like biological activity” (Allergan Sales, Inc., priority 1999, dated 2000).

In experiment [1] the target is T1, RXRγ (Mus musculus, UniProt P28705).
T1 construct: expressed in transfected cells
T1 sequence (P28705 1-463): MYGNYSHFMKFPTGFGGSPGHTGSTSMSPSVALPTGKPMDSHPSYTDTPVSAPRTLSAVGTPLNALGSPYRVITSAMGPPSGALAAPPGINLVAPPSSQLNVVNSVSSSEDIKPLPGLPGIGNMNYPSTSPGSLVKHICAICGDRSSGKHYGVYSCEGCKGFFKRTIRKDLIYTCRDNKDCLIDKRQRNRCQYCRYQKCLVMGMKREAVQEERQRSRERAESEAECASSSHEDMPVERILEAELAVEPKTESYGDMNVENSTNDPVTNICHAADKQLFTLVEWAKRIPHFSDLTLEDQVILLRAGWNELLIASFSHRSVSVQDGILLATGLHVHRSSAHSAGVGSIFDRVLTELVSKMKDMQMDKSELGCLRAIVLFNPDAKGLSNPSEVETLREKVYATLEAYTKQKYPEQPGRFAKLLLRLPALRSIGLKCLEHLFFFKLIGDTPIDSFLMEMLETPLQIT
Put plainly: holoreceptor transactivation assay, RXRγ. As to conditions: for EC50: holoreceptor transactivation, RXRγ, read-out: RXR Trans. EC50 γ; for Emax: relative to 10^-6 M cyclopropyl penta-2,4-dienoic acid reference (RXRs), read-out: % efficacy (RXRγ transactivation). The experiment is classed as cell-based. An excerpt:
(§1) Other assays described below, measure the ability of the compounds of the present invention to bind to, and/or activate various retinoid receptor subtypes. When in these assays a compound binds to a given receptor subtype and activates the transcription of a reporter gene through that subtype, then the compound is considered an agonist of that receptor subtype. […] In the below described assays the ability of the compounds to bind to RARα, RARβ, RARγ, RXRα, RXRβ and RXRγ receptors, and the ability or inability of the compounds to activate transcription of a reporter gene through these receptor subtypes can be tested. […] However, some of the compounds of the invention may behave as retinoid antagonists or partial antagonists and/or as inverse agonists. Because of the complex distribution of the different retinoid receptors in various organs of the mammalian body partial agonists and partial antagonists and compounds which have the characteristics of both may lend themselves to particularly useful therapeutic applications and may avoid serious side effects of conventional retinoid drugs.
(§2) A holoreceptor transactivation assay and a ligand binding assay which measure the antagonist/agonist like activity of the compounds of the invention, or their ability to bind to the several retinoid receptor subtypes, respectively, are described in published PCT Application No. WO WO93/11755 (particularly on pages 30-33 and 37-41) published on Jun. 24, 1993, the specification of which is also incorporated herein by reference. A detailed experimental procedure for holoreceptor transactivations has been described by Heyman et al. Cell 68, 397-406, (1992); Allegretto et al. J. Biol. Chem. 268, 26625-26633, and Mangelsdorf et al. The Retinoids: Biology, Chemistry and Medicine, pp 319-349, Raven Press Ltd., New York, which are expressly incorporated herein by reference. The results obtained in this assay are expressed in EC50 numbers, as they are also in the chimeric receptor transactivation assay. The results of ligand binding assay are expressed in Kd numbers. (See Cheng et al. Biochemical Pharmacology Vol. 22 pp 3099-3108, expressly incorporated herein by reference.)
(§3) Table 1 discloses the activity of certain exemplary compounds of the invention in the above-described chimeric receptor transactivation assay, holoreceptor transactivation assay and a ligand binding assays. Particularly, the transactivation data pertaining to RAR receptors were obtained in the chimeric assay, and the data pertaining to transactivation of RXR receptors were obtained in the holoreceptor transactivation assay.

In experiment [2] the target is T2, RXRα (Homo sapiens, UniProt P19793).
T2 construct: expressed in transfected cells
T2 sequence (P19793 1-462): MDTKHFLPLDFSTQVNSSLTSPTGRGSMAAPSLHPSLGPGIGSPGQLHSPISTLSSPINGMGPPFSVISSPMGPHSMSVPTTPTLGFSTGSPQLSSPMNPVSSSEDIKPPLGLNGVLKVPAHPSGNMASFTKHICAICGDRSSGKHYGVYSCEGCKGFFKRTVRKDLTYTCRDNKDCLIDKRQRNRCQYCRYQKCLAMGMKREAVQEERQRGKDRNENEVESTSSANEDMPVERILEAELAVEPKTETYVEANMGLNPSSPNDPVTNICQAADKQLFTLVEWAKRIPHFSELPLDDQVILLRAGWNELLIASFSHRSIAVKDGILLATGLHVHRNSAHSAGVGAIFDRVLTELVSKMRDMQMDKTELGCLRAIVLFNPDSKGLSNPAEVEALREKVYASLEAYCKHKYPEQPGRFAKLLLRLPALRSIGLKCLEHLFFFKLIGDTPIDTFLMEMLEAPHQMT
Kind of experiment: holoreceptor transactivation assay, RXRα. Type of experiment: cell-based. Particulars: for EC50: holoreceptor transactivation, RXRα, read-out: RXR Trans. EC50 α; for Emax: relative to 10^-6 M cyclopropyl penta-2,4-dienoic acid reference (RXRs), read-out: % efficacy (RXRα transactivation).
Description: as §1, §2, §3

Experiment [3] deals with T3, RXRβ (Mus musculus, UniProt P28704).
T3 construct: expressed in transfected cells
T3 sequence (P28704 1-520): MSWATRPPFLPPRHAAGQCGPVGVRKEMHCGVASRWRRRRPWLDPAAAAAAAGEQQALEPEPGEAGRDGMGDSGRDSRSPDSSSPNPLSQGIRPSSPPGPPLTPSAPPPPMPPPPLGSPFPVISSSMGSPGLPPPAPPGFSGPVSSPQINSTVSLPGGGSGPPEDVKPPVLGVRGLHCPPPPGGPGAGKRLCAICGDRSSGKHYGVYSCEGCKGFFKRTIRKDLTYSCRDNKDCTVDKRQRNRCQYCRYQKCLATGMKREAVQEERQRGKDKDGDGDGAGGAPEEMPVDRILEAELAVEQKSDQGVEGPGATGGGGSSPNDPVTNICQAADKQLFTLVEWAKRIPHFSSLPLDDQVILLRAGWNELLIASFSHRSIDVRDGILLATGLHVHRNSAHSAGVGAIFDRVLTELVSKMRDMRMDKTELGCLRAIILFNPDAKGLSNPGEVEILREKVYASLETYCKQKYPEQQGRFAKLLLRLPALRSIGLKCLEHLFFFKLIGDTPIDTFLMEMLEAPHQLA
Put plainly: holoreceptor transactivation assay, RXRβ. Type of experiment: cell-based.
Description: as §1, §2, §3

Experiment [4] deals with RXRβ. Put plainly: ligand binding assay, RXRβ. As to conditions: read-out: RXR Bind Ki β.
Description: as §1, §2, §3

Experiment [5] deals with T4, RARα (Homo sapiens, UniProt P10276).
T4 sequence (P10276 1-462): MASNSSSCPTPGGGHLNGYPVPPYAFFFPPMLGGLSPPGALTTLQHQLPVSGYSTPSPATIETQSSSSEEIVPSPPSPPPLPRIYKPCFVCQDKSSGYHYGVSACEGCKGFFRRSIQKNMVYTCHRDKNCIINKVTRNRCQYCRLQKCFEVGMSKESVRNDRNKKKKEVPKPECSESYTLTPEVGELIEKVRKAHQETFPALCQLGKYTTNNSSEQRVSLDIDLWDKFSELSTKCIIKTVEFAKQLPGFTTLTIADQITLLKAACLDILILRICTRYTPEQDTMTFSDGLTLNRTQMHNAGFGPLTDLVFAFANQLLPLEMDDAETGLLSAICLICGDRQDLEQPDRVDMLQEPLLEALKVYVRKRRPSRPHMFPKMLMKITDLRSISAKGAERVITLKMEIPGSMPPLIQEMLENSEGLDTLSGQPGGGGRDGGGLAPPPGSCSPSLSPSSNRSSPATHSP
Put plainly: ligand binding assay, RARα. As to conditions: read-out: RAR Bind. Ki α.
Description: as §1, §2, §3

The target in experiment [6] is T5, RARγ (Homo sapiens, UniProt P13631).
T5 sequence (P13631 1-454): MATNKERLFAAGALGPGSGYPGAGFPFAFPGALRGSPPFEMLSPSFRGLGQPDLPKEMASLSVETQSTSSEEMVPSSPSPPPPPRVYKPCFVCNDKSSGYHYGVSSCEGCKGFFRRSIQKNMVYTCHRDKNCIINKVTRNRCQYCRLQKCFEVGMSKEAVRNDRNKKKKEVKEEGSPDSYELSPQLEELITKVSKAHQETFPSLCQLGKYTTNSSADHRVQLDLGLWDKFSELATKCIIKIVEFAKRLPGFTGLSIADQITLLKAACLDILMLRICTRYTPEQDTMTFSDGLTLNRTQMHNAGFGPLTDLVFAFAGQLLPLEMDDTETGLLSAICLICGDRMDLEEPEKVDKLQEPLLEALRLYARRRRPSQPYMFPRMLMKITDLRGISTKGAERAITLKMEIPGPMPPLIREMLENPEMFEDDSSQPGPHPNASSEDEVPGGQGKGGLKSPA
Kind of experiment: ligand binding assay, RARγ. As to conditions: read-out: RAR Bind. Ki γ.
Description: as §1, §2, §3

Experiment [7] deals with T6, RARβ (Homo sapiens, UniProt P10826).
T6 sequence (P10826 1-448 isoform P10826-2): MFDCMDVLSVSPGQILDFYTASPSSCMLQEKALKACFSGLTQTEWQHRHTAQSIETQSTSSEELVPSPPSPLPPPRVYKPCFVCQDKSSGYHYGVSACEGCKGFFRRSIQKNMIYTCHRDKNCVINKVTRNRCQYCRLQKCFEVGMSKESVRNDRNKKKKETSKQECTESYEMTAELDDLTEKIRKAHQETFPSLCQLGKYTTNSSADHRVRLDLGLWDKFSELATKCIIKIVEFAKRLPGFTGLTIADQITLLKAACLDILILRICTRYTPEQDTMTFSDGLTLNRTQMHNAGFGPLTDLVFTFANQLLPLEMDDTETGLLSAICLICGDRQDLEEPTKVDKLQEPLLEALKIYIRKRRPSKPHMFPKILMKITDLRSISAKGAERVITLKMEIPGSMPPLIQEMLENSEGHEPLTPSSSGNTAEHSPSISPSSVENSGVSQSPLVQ
Put plainly: ligand binding assay, RARβ. As to conditions: read-out: RAR Bind. Ki β.
Description: as §1, §2, §3

The target in experiment [8] is T2, RXRα. Put plainly: ligand binding assay, RXRα. Particulars: read-out: RXR Bind Ki α.
Description: as §1, §2, §3

Experiment [9] concerns the target RXRγ. Kind of experiment: ligand binding assay, RXRγ. Particulars: read-out: RXR Bind Ki γ.
Description: as §1, §2, §3

Broadly, the EC50 is the midpoint of the concentration-response curve. On to `CCN(c1ccc(C(=O)O)cc1)c1cc2c(c(C(C)C)c1C)OCC2(C)C` [Compound 70, 4-[Ethyl-(7-isopropyl-3,3,6-trimethyl-2,3-dihydro-benzofuran-5-yl)-amino]-benzoic acid], for which the half-maximal effective concentration (EC50) in experiment [1] worked out at 0.018 µM; in experiment [2], 0.011 µM; in [3] (holoreceptor transactivation, RXRβ, read-out: RXR Trans. EC50 β), 0.073 µM. The Emax in experiment [1] turned out to be 120%; in experiment [2], 119%; in experiment [3] (relative to 10^-6 M cyclopropyl penta-2,4-dienoic acid reference (RXRs), read-out: % efficacy (RXRβ transactivation)) it was 113%.

Usually Ki stands for the dissociation constant of the complex between target and ligand, obtained from inhibition or displacement. For `CCc1cc(N(C)c2ccc(C(=O)O)cc2)cc2c1OCC2(C)C` [Compound 28, 4-[Methyl-(7-ethyl-3,3-dimethyl-2,3-dihydro-benzofuran-5-yl)-amino]-benzoicacid], the EC50 in experiment [1] and in [2] was more than 1 µM throughout. Further, the Emax is 15% in experiment [1] and 25% in experiment [2]. Further, the Ki in [4] was more than 10 µM; in experiment [5] it was 9.4 µM; in experiment [6], 4.5 µM; in experiment [7], more than 10 µM; in [8] it was more than 10 µM; in experiment [9], more than 10 µM.

Take `Cc1cc(N(C)c2ccc(C(=O)O)cc2)cc2c1OCC2(C)C` [Compound 26, 4-[Methyl-(3,3,7-trimethyl-2,3-dihydro-benzofuran-5-yl)-amino]-benzoic acid]: the inhibition constant (Ki) in experiment [4] is more than 100 µM; in experiment [5], more than 30 µM; in experiment [6], 6.7 µM; in [7], more than 30 µM; in experiment [8], 10 µM; in [9] it was more than 100 µM.

For `Cc1cc(N(c2ccc(C(=O)O)cc2)C(C)C)cc2c1OCC2(C)C` [Compound 41, 4-[Isopropyl-(3,3,7-trimethyl-2,3-dihydro-benzofuran-5-yl)-amino]-benzoic acid], in experiment [2], the EC50 amounted to 1 µM. Further, the Emax in experiment [2] is 75%. The Ki was more than 100 µM in experiment [4]; more than 30 µM in experiment [5]; more than 30 µM in experiment [6]; more than 30 µM in experiment [7]; 9.2 µM in experiment [8]; more than 100 µM in experiment [9].
